# Earlier results, collected in publication PMC5560747, “Computational-experimental approach to drug-target interaction mapping: A case study on kinase inhibitors” (PLoS Computational Biology, 2017).
# Tests used:
# Set-up in all cases: method as in Gao et al. [42]
# AKT3 = settings: ref Gao et al. [42], cited from earlier work
# MKNK2 (MNK2) = settings: ref Gao et al. [42], cited from earlier work
# GSK3A = settings: ref Gao et al. [42], cited from earlier work
# SRPK1 = settings: ref Gao et al. [42], cited from earlier work
# HIPK2 = settings: ref Gao et al. [42], cited from earlier work
# BRK = BRK (Homo sapiens, UniProt Q13882); settings: ref Gao et al. [42], cited from earlier work
# EEF2K = settings: ref Gao et al. [42], cited from earlier work
# JAK2 = settings: ref Gao et al. [42], cited from earlier work
# PIM1 = settings: ref Gao et al. [42], cited from earlier work
# AKT1 = settings: ref Gao et al. [42], cited from earlier work
# CSNK1G1 = settings: ref Gao et al. [42], cited from earlier work
# MAP4K2 = settings: ref Gao et al. [42], cited from earlier work
# CHK1 = settings: ref Gao et al. [42], cited from earlier work
# ERK2 = settings: ref Gao et al. [42], cited from earlier work
# FMS = settings: ref Gao et al. [42], cited from earlier work
# CDK2 = settings: ref Gao et al. [42], cited from earlier work
# TYRO3 = settings: ref Gao et al. [42], cited from earlier work
# ALK = settings: ref Gao et al. [42], cited from earlier work
# RSK2 = settings: ref Gao et al. [42], cited from earlier work
# CHUK = settings: ref Gao et al. [42], cited from earlier work
# MAPK9 = settings: ref Gao et al. [42], cited from earlier work
# SYK = SYK (Homo sapiens, UniProt P43405); settings: ref Gao et al. [42]; cited from earlier work
# STK17A = settings: ref Gao et al. [42], cited from earlier work
# CAMK2g = settings: ref Gao et al. [42], cited from earlier work
# CLK2 = settings: ref Gao et al. [42], cited from earlier work
# EPHA2 = settings: ref Gao et al. [42], cited from earlier work
# LYN B = LYN B (Homo sapiens, UniProt P07948); settings: ref Gao et al. [42], cited from earlier work
# InsR = InsR (Homo sapiens, UniProt P06213); settings: ref Gao et al. [42], cited from earlier work
# MAPK13 = settings: ref Gao et al. [42], cited from earlier work
# TRKB = settings: ref Gao et al. [42], cited from earlier work
# TSSK1B = settings: ref Gao et al. [42], cited from earlier work
# JNK1 = settings: ref Gao et al. [42], cited from earlier work
# ERK6 = settings: ref Gao et al. [42], cited from earlier work
# PKCg = settings: ref Gao et al. [42], cited from earlier work
# Sequence of BRK (Q13882 whole entry): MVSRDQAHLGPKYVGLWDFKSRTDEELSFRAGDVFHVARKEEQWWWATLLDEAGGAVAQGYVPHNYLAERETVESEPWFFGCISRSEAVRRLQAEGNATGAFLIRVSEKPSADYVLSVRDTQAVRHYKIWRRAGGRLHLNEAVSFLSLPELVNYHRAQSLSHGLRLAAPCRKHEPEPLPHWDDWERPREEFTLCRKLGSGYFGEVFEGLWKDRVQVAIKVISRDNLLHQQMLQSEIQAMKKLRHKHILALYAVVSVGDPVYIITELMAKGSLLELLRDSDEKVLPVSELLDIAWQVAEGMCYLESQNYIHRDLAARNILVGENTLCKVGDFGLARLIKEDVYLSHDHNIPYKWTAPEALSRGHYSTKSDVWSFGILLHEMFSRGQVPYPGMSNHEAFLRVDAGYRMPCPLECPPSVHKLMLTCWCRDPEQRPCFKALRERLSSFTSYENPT
# Sequence of InsR (P06213 28-1382): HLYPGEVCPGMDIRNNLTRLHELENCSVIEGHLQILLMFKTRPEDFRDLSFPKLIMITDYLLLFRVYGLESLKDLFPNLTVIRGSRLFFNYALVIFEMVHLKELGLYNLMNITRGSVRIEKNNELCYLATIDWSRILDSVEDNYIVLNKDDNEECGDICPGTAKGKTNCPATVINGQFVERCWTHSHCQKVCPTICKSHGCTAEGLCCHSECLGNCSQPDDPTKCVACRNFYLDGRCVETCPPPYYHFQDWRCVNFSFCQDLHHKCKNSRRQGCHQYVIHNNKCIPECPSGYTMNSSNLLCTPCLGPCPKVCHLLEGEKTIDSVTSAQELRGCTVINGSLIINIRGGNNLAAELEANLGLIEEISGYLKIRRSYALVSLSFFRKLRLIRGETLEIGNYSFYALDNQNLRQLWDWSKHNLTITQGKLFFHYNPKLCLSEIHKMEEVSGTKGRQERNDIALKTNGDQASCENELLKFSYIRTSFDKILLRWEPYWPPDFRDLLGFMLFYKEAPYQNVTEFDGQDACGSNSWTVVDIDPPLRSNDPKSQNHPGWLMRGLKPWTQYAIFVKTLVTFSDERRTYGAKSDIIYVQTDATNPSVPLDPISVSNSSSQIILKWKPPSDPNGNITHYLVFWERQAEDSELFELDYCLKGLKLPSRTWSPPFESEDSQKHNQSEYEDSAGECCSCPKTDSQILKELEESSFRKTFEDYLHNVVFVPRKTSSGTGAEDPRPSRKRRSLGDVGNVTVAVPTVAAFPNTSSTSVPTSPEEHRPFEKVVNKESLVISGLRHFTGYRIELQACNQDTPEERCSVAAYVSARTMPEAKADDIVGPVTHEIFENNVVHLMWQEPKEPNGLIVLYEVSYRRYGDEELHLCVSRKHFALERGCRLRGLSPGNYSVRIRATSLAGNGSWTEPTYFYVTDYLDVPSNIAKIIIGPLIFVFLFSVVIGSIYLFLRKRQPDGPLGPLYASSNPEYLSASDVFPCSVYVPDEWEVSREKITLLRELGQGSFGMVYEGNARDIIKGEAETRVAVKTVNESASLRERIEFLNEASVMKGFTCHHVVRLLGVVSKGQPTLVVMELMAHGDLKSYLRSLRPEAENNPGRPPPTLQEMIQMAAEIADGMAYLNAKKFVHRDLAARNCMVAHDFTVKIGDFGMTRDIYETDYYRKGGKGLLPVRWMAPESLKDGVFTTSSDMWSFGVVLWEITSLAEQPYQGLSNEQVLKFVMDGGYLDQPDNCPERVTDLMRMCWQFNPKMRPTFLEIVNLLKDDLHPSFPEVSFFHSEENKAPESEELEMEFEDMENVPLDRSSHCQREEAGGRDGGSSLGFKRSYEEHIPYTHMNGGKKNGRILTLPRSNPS
# Sequence of LYN B (P07948 1-491 isoform P07948-2): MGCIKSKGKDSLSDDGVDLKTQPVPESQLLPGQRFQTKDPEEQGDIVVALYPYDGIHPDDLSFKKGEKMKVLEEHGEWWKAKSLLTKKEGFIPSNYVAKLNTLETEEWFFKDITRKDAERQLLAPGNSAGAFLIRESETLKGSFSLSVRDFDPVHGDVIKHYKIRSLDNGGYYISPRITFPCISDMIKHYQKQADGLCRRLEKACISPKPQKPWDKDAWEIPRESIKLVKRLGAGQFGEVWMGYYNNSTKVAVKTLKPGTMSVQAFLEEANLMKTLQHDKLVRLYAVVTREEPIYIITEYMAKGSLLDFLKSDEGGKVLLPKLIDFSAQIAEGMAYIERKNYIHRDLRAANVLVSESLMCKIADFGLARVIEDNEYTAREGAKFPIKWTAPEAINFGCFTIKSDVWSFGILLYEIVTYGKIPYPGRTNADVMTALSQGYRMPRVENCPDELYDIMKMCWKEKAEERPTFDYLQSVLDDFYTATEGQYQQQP
smiles,measurement,setting,value
"COc1cc2nccc(Oc3ccc(NC(=O)Nc4cc(C)on4)c(Cl)c3)c2cc1OC [TIVOZANIB, Tivozanib]",Gao et al. % of activity remaining at 1 µM,AKT3; 1 µM,95%
same,Gao et al. % of activity remaining at 10 µM,AKT3; 10 µM,89%
same,Gao et al. % of activity remaining at 1 µM,MKNK2 (MNK2); 1 µM,105%
same,Gao et al. % of activity remaining at 10 µM,MKNK2 (MNK2); 10 µM,64%
same,Gao et al. % of activity remaining at 1 µM,GSK3A; 1 µM,107%
same,Gao et al. % of activity remaining at 10 µM,GSK3A; 10 µM,123%
same,Gao et al. % of activity remaining at 1 µM,SRPK1; 1 µM,98%
same,Gao et al. % of activity remaining at 10 µM,SRPK1; 10 µM,90%
same,Gao et al. % of activity remaining at 1 µM,HIPK2; 1 µM,94%
same,Gao et al. % of activity remaining at 10 µM,HIPK2; 10 µM,81%
same,Gao et al. % of activity remaining at 1 µM,BRK; 1 µM,2%
same,Gao et al. % of activity remaining at 10 µM,BRK; 10 µM,-1%
same,Gao et al. % of activity remaining at 1 µM,EEF2K; 1 µM,84%
same,Gao et al. % of activity remaining at 10 µM,EEF2K; 10 µM,116%
same,Gao et al. % of activity remaining at 1 µM,JAK2; 1 µM,114%
same,Gao et al. % of activity remaining at 10 µM,JAK2; 10 µM,114%
same,Gao et al. % of activity remaining at 1 µM,PIM1; 1 µM,95%
same,Gao et al. % of activity remaining at 10 µM,PIM1; 10 µM,86%
same,Gao et al. % of activity remaining at 1 µM,AKT1; 1 µM,97%
same,Gao et al. % of activity remaining at 10 µM,AKT1; 10 µM,101%
same,Gao et al. % of activity remaining at 1 µM,CSNK1G1; 1 µM,89%
same,Gao et al. % of activity remaining at 10 µM,CSNK1G1; 10 µM,57%
same,Gao et al. % of activity remaining at 1 µM,MAP4K2; 1 µM,47%
same,Gao et al. % of activity remaining at 10 µM,MAP4K2; 10 µM,17%
same,Gao et al. % of activity remaining at 1 µM,CHK1; 1 µM,89%
same,Gao et al. % of activity remaining at 10 µM,CHK1; 10 µM,100%
same,Gao et al. % of activity remaining at 1 µM,ERK2; 1 µM,103%
same,Gao et al. % of activity remaining at 10 µM,ERK2; 10 µM,104%
same,Gao et al. % of activity remaining at 1 µM,FMS; 1 µM,0%
same,Gao et al. % of activity remaining at 10 µM,FMS; 10 µM,0%
same,Gao et al. % of activity remaining at 1 µM,CDK2; 1 µM,98%
same,Gao et al. % of activity remaining at 10 µM,CDK2; 10 µM,86%
same,Gao et al. % of activity remaining at 1 µM,TYRO3; 1 µM,10%
same,Gao et al. % of activity remaining at 10 µM,TYRO3; 10 µM,8%
same,Gao et al. % of activity remaining at 1 µM,ALK; 1 µM,83%
same,Gao et al. % of activity remaining at 10 µM,ALK; 10 µM,38%
same,Gao et al. % of activity remaining at 1 µM,RSK2; 1 µM,60%
same,Gao et al. % of activity remaining at 10 µM,RSK2; 10 µM,35%
same,Gao et al. % of activity remaining at 1 µM,CHUK; 1 µM,91%
same,Gao et al. % of activity remaining at 10 µM,CHUK; 10 µM,114%
same,Gao et al. % of activity remaining at 1 µM,MAPK9; 1 µM,104%
same,Gao et al. % of activity remaining at 10 µM,MAPK9; 10 µM,88%
same,Gao et al. % of activity remaining at 10 µM,SYK,73%
same,Gao et al. % of activity remaining at 1 µM,STK17A; 1 µM,116%
same,Gao et al. % of activity remaining at 10 µM,STK17A; 10 µM,87%
same,Gao et al. % of activity remaining at 1 µM,CAMK2g; 1 µM,108%
same,Gao et al. % of activity remaining at 10 µM,CAMK2g; 10 µM,70%
same,Gao et al. % of activity remaining at 1 µM,CLK2; 1 µM,114%
same,Gao et al. % of activity remaining at 10 µM,CLK2; 10 µM,99%
same,Gao et al. % of activity remaining at 1 µM,EPHA2; 1 µM,-3%
same,Gao et al. % of activity remaining at 10 µM,EPHA2; 10 µM,-3%
same,Gao et al. % of activity remaining at 1 µM,LYN B; 1 µM,-1%
same,Gao et al. % of activity remaining at 10 µM,LYN B; 10 µM,2%
same,Gao et al. % of activity remaining at 1 µM,InsR; 1 µM,102%
same,Gao et al. % of activity remaining at 10 µM,InsR; 10 µM,29%
same,Gao et al. % of activity remaining at 1 µM,MAPK13; 1 µM,114%
same,Gao et al. % of activity remaining at 10 µM,MAPK13; 10 µM,97%
same,Gao et al. % of activity remaining at 1 µM,TRKB; 1 µM,42%
same,Gao et al. % of activity remaining at 10 µM,TRKB; 10 µM,-10%
same,Gao et al. % of activity remaining at 1 µM,TSSK1B; 1 µM,94%
same,Gao et al. % of activity remaining at 10 µM,TSSK1B; 10 µM,82%
same,Gao et al. % of activity remaining at 1 µM,JNK1; 1 µM,120%
same,Gao et al. % of activity remaining at 10 µM,JNK1; 10 µM,109%
same,Gao et al. % of activity remaining at 1 µM,ERK6; 1 µM,100%
same,Gao et al. % of activity remaining at 10 µM,ERK6; 10 µM,94%
same,Gao et al. % of activity remaining at 1 µM,PKCg; 1 µM,109%
same,Gao et al. % of activity remaining at 10 µM,PKCg; 10 µM,110%
